Tests used:
apo-POD [1] = biological target: T1, apo-POD (Armoracia rusticana, UniProt P00433); test: Interference study with peroxidase detecting dry reagent (Example III); format: biochemical, horse radish
T1 construct: purchased Sigma Chemical Company, St. Louis, Mo
T1 sequence (P00433 31-353): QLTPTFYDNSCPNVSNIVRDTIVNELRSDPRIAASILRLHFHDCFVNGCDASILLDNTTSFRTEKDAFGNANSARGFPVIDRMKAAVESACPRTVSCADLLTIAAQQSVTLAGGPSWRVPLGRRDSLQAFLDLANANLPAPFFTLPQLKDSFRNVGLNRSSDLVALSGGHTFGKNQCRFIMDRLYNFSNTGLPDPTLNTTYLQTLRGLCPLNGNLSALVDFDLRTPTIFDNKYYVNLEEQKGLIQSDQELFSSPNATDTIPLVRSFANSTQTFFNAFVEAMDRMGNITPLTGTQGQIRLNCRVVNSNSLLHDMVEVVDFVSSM
Protocol: In this example, a peroxidase detecting dry reagent with resistance to 0.81 mg/dL hemoglobin (or myoglobin) and 25 mg/dL ascorbate and sufficient sensitivity to detect apo-peroxidase reactivation was used. […]
The reagent was tested by dipping it into solutions containing the interfering substance with and without Fe hematin. […]

apo-POD [2] = biological target: T1, apo-POD; test: Metal porphyrin study: reactivation of apo-peroxidase (Example IV); format: biochemical, horse radish; settings: for % R @ 90 second read time on CLINITEK-200+, mean: 12 μM apo-POD, HEMASTIX no lepidine/pH 7.5
Protocol: (§1) In this example, other metal porphyrins were tested for their ability to reactivate different types of apo-peroxidases. Metals such as Fe, Cu, Mg, Zn, Ni, Mn, Co and Pd were complexed to hematin and added to the peroxidase detecting agent. Metals such as Mn, Fe, Cu and Co and porphyrins other than hematin, i.e. deuteroporphyrin and coproporphyrin were also shown to provide the desired response.

apo-Hb = biological target: T2, apo-Hb (Homo sapiens, UniProt P68871+P69905); test: Metal porphyrin study: reactivation of apo-hemoglobin (Example IV); format: biochemical; settings: 12 μM apo-Hb, 12 μM metal porphyrin, HEMASTIX no lepidine/pH 7.5
T2 construct: made in house
Protocol: as §1
A 0.7% solution of hemoglobin was lowered to pH 1.5 and the resulting solution was ultrafiltered through a 10 KDa cutoff membrane followed by several changes of water. Filtered material was reconstituted into water. The apo-hemoglobin passed […]. […] It produced a HEMASTIX® result of +++++ indicating a high concentration of hemoglobin.

[3] = Metal porphyrin study: metal porphyrin in water without apo-enzyme (Example IV); format: biochemical; settings: HEMASTIX no lepidine/pH 7.5
Protocol: as §1

apo-peroxidase = biological target: T3, apo-peroxidase (Armoracia rusticana, UniProt P00433); test: Proximity effect: antibody binding of hematin-antigen conjugate prevents apo-enzyme reactivation (Example II); format: biochemical, horse radish; settings: for Reagent Response (% R @ 30 Sec) @ 660 nm: 36 nM apo-peroxidase, 36 nM antigen-hematin, 36 nM antibody
T3 construct: purchased Sigma Chemical Company, St. Louis, Mo
T3 sequence (P00433 31-353): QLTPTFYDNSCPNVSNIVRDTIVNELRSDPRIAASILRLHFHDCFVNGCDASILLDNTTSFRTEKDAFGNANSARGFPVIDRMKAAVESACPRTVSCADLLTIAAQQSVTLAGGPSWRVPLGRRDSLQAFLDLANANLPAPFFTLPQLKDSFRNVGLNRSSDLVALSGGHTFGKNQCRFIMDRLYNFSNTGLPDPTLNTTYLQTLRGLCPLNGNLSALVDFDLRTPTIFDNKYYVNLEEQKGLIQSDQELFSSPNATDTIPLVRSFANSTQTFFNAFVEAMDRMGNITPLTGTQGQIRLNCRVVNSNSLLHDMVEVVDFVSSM
Protocol: A 10 μL sample of hematin-BJP^1 (3.6 μM, 8.61 mg/dL in phosphate buffered saline), anti-BJP (3.6 μM, 52.56 mg/dL in PBS) and BJP (3.6 μM, 8.28 mg/dL in phosphate buffered saline) were mixed with 10 μL apo-POD (3.6 μM, 14.0 mg/dL in phosphate buffered saline) and […] phosphate buffered saline. The solution was incubated for 5 to 10 minutes at room temperature and the response to HEMASTIX® reagent dipped in the test solution was measured using a CLINITEK®-200 instrument. The response of HEMASTIX® reagent with the phosphate buffered saline solution containing hematin alone was 65.7% reflectance at 1 minute. Sheep anti-human BJP monoclonal antibody was obtained from The Binding Site Limited of Birmingham, England.
In this example, antibody binding of the hematin-antigen conjugate is shown to prevent apo-enzyme reactivation (Table 4). The data set out in Table 4 were generated by using the HEMASTIX® formula with lepidine but lacking apo-peroxidase, antigen-hematin antigen and antibody. The later were mixed in solution and reagent strips with the modified HEMASTIX® formula were immediately dipped into the solution and read using a CLINITEK™-200+ reflectance spectrometer.

T2 sequence (P69905 2-142 limits assumed): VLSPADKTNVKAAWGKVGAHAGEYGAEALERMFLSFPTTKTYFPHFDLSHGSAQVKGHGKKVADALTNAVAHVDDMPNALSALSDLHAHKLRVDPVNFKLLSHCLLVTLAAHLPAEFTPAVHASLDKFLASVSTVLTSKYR
T2 sequence (P68871 2-147 limits assumed): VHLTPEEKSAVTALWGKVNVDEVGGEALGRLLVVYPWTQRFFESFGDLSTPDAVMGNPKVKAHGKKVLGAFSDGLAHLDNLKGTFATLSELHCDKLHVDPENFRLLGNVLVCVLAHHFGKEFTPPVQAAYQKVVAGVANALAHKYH

C=CC1=C(C)c2cc3[n-]c(cc4[n-]c(cc5nc(cc1n2)C(C)=C5C=C)c(C)c4CCC(=O)O)c(CCC(=O)O)c3C.O.[Fe+2] [Fe Hematin]
% R response, mean (apo-POD [1]; +3.6 μM Fe Hematin, HEMASTIX (lepidine/pH 6.3), Water): 8.8%
% R response, mean (apo-POD [1]; +3.6 μM Fe Hematin, HEMASTIX (no lepidine/pH 7.5), Water): 79.2%
% R response, mean (apo-POD [1]; +12 μM Fe Hematin/12 μM apo-POD, HEMASTIX (lepidine/pH 6.3), Water): 4.1%
% R response, mean (apo-POD [1]; +12 μM Fe Hematin/12 μM apo-POD, HEMASTIX (no lepidine/pH 7.5), 25 mg/dL Ascorbic): 55.3%
% R response, mean (apo-POD [1]; +12 μM Fe Hematin/12 μM apo-POD, HEMASTIX (no lepidine/pH 7.5), Water): 54.0%
% R response, mean (apo-POD [1]; +12 μM Fe Hematin, HEMASTIX (lepidine/pH 6.3), 25 mg/dL Ascorbic): 5.3%
% R response, mean (apo-POD [1]; +12 μM Fe Hematin, HEMASTIX (lepidine/pH 6.3), Water): 6.4%
% R response, mean (apo-POD [1]; +12 μM Fe Hematin, HEMASTIX (no lepidine/pH 7.5), 25 mg/dL Ascorbic): 73.2%
% R response, mean (apo-POD [1]; +12 μM Fe Hematin, HEMASTIX (no lepidine/pH 7.5), Water): 72.4%
% R response, mean (apo-POD [1]; +36 μM Fe Hematin, HEMASTIX (lepidine/pH 6.3), Water): 3.1%
% R @ 90 second read time on CLINITEK-200+, mean (apo-POD [2]; 12 μM metal porphyrin): 50.9 % R
% R @ 90 second read time on CLINITEK-200+, mean (apo-Hb): 45.3 % R
% R @ 90 second read time on CLINITEK-200+, mean ([3]; 12 μM metal porphyrin): 71.5 % R

Fe coproporphyrin
% R @ 90 second read time on CLINITEK-200+, mean (apo-POD [2]; 12 μM metal porphyrin): 56.4 % R
% R @ 90 second read time on CLINITEK-200+, mean (apo-Hb): 52.1 % R
% R @ 90 second read time on CLINITEK-200+, mean ([3]; 12 μM metal porphyrin): 69.7 % R

Pb deuteroporphyrin
% R @ 90 second read time on CLINITEK-200+, mean (apo-POD [2]; 120 μM metal porphyrin): 73.4 % R
% R @ 90 second read time on CLINITEK-200+, mean ([3]; 120 μM metal porphyrin): 72.1 % R

Ni deuteroporphyrin
% R @ 90 second read time on CLINITEK-200+, mean (apo-POD [2]; 120 μM metal porphyrin): 76.1 % R
% R @ 90 second read time on CLINITEK-200+, mean ([3]; 120 μM metal porphyrin): 75.5 % R

Cc1cc(C)nc(NS(=O)(=O)c2ccc(N)cc2)n1 [Sulfamethazine]
Reagent Response (% R @ 30 Sec) @ 660 nm (apo-peroxidase; 24 nM antigen): 21.3 % R
Reagent Response (% R @ 30 Sec) @ 660 nm (apo-peroxidase; free antigen none): 23.6 % R
prevention of apo-enzyme reactivation by antibody (in words) (apo-peroxidase; antigen-hematin plus antibody): did not prevent apo-enzyme reactivation

Co deuteroporphyrin
% R @ 90 second read time on CLINITEK-200+, mean (apo-POD [2]; 120 μM metal porphyrin): 74.1 % R
% R @ 90 second read time on CLINITEK-200+, mean ([3]; 120 μM metal porphyrin): 71.5 % R

Mn deuteroporphyrin
% R @ 90 second read time on CLINITEK-200+, mean (apo-POD [2]; 120 μM metal porphyrin): 48.2 % R
response / activity with apo-peroxidase (in words) (apo-POD [2]; metal porphyrin study): responses similar to those obtained for Fe
% R @ 90 second read time on CLINITEK-200+, mean ([3]; 120 μM metal porphyrin): 66.4 % R

B1: myoglobin: interfering substance, 0.81 mg/dL (protein, UniProt P02144 2-154, looked up)
Myoglobin: GLSDGEWQLVLNVWGKVEADIPGHGQEVLIRLFKGHPETLEKFDKFKHLKSEDEMKASEDLKKHGATVLTALGGILKKKGHHEAEIKPLAQSHATKHKIPVKYLEFISECIIQVLQSKHPGDFGADAQGAMNKALELFRKDMASNYKELGFQG
interference with peroxidase detecting reagent (in words) (apo-POD [1]; hemoglobin/myoglobin: reagent without modification, ascorbate: system with ascorbate scavenger): causes a false positive response

— US6228602A, “Competitive apo-peroxidase assay” (Bayer Corporation, priority 1999, dated 2001)
